Target: BTK (Homo sapiens (Human), UniProt Q06187)
Test: In Vitro BTK Kinase Assay: Btk-PolyGAT-LS Assay
Format: biochemical
Conditions: BTK enzyme 0.25 nM, ATP 10 μM, polyGAT 100 nM, 30 minutes incubation, TRF readout; read-out: IC50
Protocol: The purpose of the BTK in vitro assay is to determine compound potency against BTK through the measurement of IC50. […] For a typical assay, a 24 μL aliquot of a ATP/peptide master mix (final concentration; ATP 10 μM, polyGAT 100 nM) in kinase buffer (10 mM Tris-HCl pH 7.5, 10 mM MgCl2, 200 μM Na3PO4, 5 mM DTT, 0.01% Triton X-100, and 0.2 mg/ml casein) is added to each well. […] The assay is incubated for 30 minutes before being stopped with 28 μL of a 50 mM EDTA solution. […] The plate is covered and incubated for 45 minutes at room temperature.

Chain of BTK (Q06187 whole entry): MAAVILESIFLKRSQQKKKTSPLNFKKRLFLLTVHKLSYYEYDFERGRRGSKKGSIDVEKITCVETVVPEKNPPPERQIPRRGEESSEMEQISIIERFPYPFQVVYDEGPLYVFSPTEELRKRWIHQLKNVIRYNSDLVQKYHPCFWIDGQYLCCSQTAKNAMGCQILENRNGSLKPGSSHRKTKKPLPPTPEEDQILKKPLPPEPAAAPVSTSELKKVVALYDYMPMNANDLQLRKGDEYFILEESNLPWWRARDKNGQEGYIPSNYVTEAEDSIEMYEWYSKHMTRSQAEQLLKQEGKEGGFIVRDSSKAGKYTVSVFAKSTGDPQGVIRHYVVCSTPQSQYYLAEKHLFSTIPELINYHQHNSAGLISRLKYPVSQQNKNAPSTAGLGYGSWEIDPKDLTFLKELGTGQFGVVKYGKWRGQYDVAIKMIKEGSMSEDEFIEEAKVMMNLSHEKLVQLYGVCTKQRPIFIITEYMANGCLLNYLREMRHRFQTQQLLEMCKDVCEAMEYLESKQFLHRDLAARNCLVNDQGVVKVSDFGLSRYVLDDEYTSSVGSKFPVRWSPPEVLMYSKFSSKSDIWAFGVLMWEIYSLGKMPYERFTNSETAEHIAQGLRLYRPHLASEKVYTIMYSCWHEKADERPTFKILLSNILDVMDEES

| Compound | IC50 [nM] |
| --- | --- |
| C=CC(=O)N(C1CC1)[C@H]1C[C@H](Oc2nc(-c3cnn(C)c3)cn3nccc23)C1 [Example 102, N-cyclopropyl-N-((trans)-3-((6-(1-methyl-1H-pyrazol-4-yl)pyrazolo[1,5-a]pyrazin-4-yl)oxy)cyclobutyl)acrylamide] | 1 to 10 |
| C/C=C/C(=O)Nc1cc(Oc2nc(-c3cnn(C)c3)cn3nccc23)ccc1C [Example 131, (E)-N-(2-methyl-5-((6-(1-methyl-1H-pyrazol-4-yl)pyrazolo[1,5-a]pyrazin-4-yl)oxy)phenyl)but-2-enamide] | 10 to 1000 |
| C=CC(=O)NCc1cccc(Oc2nc(-c3cnn(C)c3)cn3nccc23)c1 [Example 132, N-(3-((6-(1-methyl-1H-pyrazol-4-yl)pyrazolo[1,5-a]pyrazin-4-yl)oxy)benzyl)acrylamide] | 10 to 1000 |
| Cn1cc(-c2cn3nccc3c(Oc3cccc(NC(=O)C#CC4CC4)c3Cl)n2)cn1 [Example 133, N-(2-chloro-3-((6-(1-methyl-1H-pyrazol-4-yl)pyrazolo[1,5-a]pyrazin-4-yl)oxy)phenyl)-3-cyclopropylpropiolamide] | < 1 |
| Cc1c(NC(=O)C2=CCC2)cc(F)cc1Oc1nc(-c2cnn(C)c2)cn2nccc12 [Example 134, N-(5-fluoro-2-methyl-3-((6-(1-methyl-1H-pyrazol-4-yl)pyrazolo[1,5-a]pyrazin-4-yl)oxy)phenyl)cyclobut-1-ene-1-carboxamide] | 1 to 10 |
| Cc1c(NC(=O)/C=C/CN(C)C2CCC2)cccc1Oc1nc(-c2cnn(C)c2)cn2nccc12 [Example 135, (E)-4-(cyclobutyl(methyl)amino)-N-(2-methyl-3-((6-(1-methyl-1H-pyrazol-4-yl)pyrazolo[1,5-a]pyrazin-4-yl)oxy)phenyl)but-2-enamide] | 10 to 1000 |
| O=C(/C=C/C(F)(F)F)Nc1cccc(Oc2nc(-c3cnn(C4CCOC4)c3)cn3nccc23)c1F (centres unmarked) [Example 136, (E)-4,4,4-trifluoro-N-(2-fluoro-3-((6-(1-(tetrahydrofuran-3-yl)-1H-pyrazol-4-yl)pyrazolo[1,5-a]pyrazin-4-yl)oxy)phenyl)but-2-enamide] | 1 to 10 |
| C=CC(=O)NC(C)c1cccc(Oc2nc(-c3cnn(C)c3)cn3nccc23)c1C (centres unmarked) [Example 137, N-(1-(2-methyl-3-((6-(1-methyl-1H-pyrazol-4-yl)pyrazolo[1,5-a]pyrazin-4-yl)oxy)phenyl)ethyl)acrylamide] | 10 to 1000 |
| CC#CC(=O)Nc1cncc(Oc2nc(-c3cnn(C)c3)cn3nccc23)c1 [Example 138, N-(5-((6-(1-methyl-1H-pyrazol-4-yl)pyrazolo[1,5-a]pyrazin-4-yl)oxy)pyridin-3-yl)but-2-ynamide] | 1 to 10 |
| CN(C)C/C=C/C(=O)N(CC(F)F)[C@H]1CC[C@@H](Oc2nc(-c3cnn(C)c3)cn3nccc23)C1 [Example 147, (E)-N-(2,2-difluoroethyl)-4-(dimethylamino)-N-((1S,3R)-3-((6-(1-methyl-1H-pyrazol-4-yl)pyrazolo[1,5-a]pyrazin-4-yl)oxy)cyclopentyl)but-2-enamide] | 1 to 10 |
| C=CC(=O)N1C[C@@H]2C[C@H]1C[C@H]2Oc1nc(-c2cnn(C)c2)cn2nccc12 [Example 152, 1-((1S,4S,5R)-5-((6-(1-methyl-1H-pyrazol-4-yl)pyrazolo[1,5-a]pyrazin-4-yl)oxy)-2-azabicyclo[2.2.1]heptan-2-yl)prop-2-en-1-one] | 1 to 10 |
| C=CC(=O)N1C[C@H]2C[C@@H]1C[C@@H]2Oc1nc(-c2cnn(C)c2)cn2nccc12 [Example 153, 1-((1R,4R,5S)-5-((6-(1-methyl-1H-pyrazol-4-yl)pyrazolo[1,5-a]pyrazin-4-yl)oxy)-2-azabicyclo[2.2.1]heptan-2-yl)prop-2-en-1-one] | 10 to 1000 |
| C=CC(=O)N1CC2CCC(N(C)c3cc(-c4cnn(C)c4)cn4nccc34)C2C1 (centres unmarked) [Example 154, 1-(4-(methyl(6-(1-methyl-1H-pyrazol-4-yl)pyrazolo[1,5-a]pyridin-4-yl)amino)hexahydrocyclopenta[c]pyrrol-2(1H)-yl)prop-2-en-1-one] | 10 to 1000 |
| C=CC(=O)N(C)[C@H]1C[C@@H](Oc2nc(-c3cnn([C@@H]4CCOC4)c3)cn3nccc23)C1 [Example 155, N-methyl-N-((cis)-3-((6-(1-((R)-tetrahydrofuran-3-yl)-1H-pyrazol-4-yl)pyrazolo[1,5-a]pyrazin-4-yl)oxy)cyclobutyl)acrylamide] | < 1 |
| C=CC(=O)N(C)[C@H]1C[C@@H](Oc2nc(-c3cnn([C@H]4CCOC4)c3)cn3nccc23)C1 [Example 156, N-methyl-N-((cis)-3-((6-(1-((S)-tetrahydrofuran-3-yl)-1H-pyrazol-4-yl)pyrazolo[1,5-a]pyrazin-4-yl)oxy)cyclobutyl)acrylamide] | < 1 |
| CC#CC(=O)N[C@H]1C[C@@](C)(Oc2nc(-c3cnn(C(F)(F)F)c3)cn3ncc(C)c23)C1 [Example 157, Cis N-(3-methyl-3-((3-methyl-6-(1-(trifluoromethyl)-1H-pyrazol-4-yl)pyrazolo[1,5-a]pyrazin-4-yl)oxy)cyclobutyl)but-2-ynamide] | 1 to 10 |
| C=CC(=O)N1C[C@@H]2[C@@H](CNc3cc(-c4cnn(C)c4)cn4nccc34)[C@@H]2C1 [Example 165, 1-((1R,5S,6s)-6-(((6-(1-methyl-1H-pyrazol-4-yl)pyrazolo[1,5-a]pyridin-4-yl)amino)methyl)-3-azabicyclo[3.1.0]hexan-3-yl)prop-2-en-1-one] | 1 to 10 |
| CC#CC(=O)N[C@@H]1CCC[C@H](Oc2nc(-c3cnn(C)c3)cn3nccc23)C1 [Example 180, N-((1R,3S)-3-((6-(1-methyl-1H-pyrazol-4-yl)pyrazolo[1,5-a]pyrazin-4-yl)oxy)cyclohexyl)but-2-ynamide] | 10 to 1000 |
| CN(C(=O)CCl)[C@H]1CCC[C@@H](Oc2nc(-c3cnn(C)c3)cn3nccc23)C1 [Example 181, 2-chloro-N-methyl-N-((1S,3R)-3-((6-(1-methyl-1H-pyrazol-4-yl)pyrazolo[1,5-a]pyrazin-4-yl)oxy)cyclohexyl)acetamide] | < 1 |
| C=CC(=O)N(C)CCCOc1nc(-c2cnn(C)c2)cn2nccc12 [Example 182, N-methyl-N-(3-((6-(1-methyl-1H-pyrazol-4-yl)pyrazolo[1,5-a]pyrazin-4-yl)oxy)propyl)acrylamide] | 10 to 1000 |
| C=CC(=O)N(C)CC(C)CCOc1nc(-c2cnn(C)c2)cn2nccc12 (centres unmarked) [Example 184, N-methyl-N-(2-methyl-4-((6-(1-methyl-1H-pyrazol-4-yl)pyrazolo[1,5-a]pyrazin-4-yl)oxy)butyl)acrylamide] | 10 to 1000 |
| Cc1ncc(-c2cn3nccc3c(O[C@@]3(C)C[C@@H]4[C@H]3CCN4C(=O)C3=CCC3)n2)s1 [Example 196, Cyclobut-1-en-1-yl((1R,5R,6S)-6-methyl-6-((6-(2-methylthiazol-5-yl)pyrazolo[1,5-a]pyrazin-4-yl)oxy)-2-azabicyclo[3.2.0]heptan-2-yl)methanone] | 10 to 1000 |
| C=CC(=O)N1C[C@@H]2C[C@H](Oc3nc(-c4cnn(C)c4)cn4ncc(C)c34)[C@@H]2C1 [Example 198, 1-((1R,5S,6S)-6-((3-methyl-6-(1-methyl-1H-pyrazol-4-yl)pyrazolo[1,5-a]pyrazin-4-yl)oxy)-3-azabicyclo[3.2.0]heptan-3-yl)prop-2-en-1-one] | 10 to 1000 |
